Experiments:
[1] = tested on: PD1 signal sequence plus 10 amino acids fused to Gaussia Luciferase (PD1-ss+10aa/Gaussia Luciferase); test: Dox Induced PD1-ss-Gluc Assay; assay type: cell-based; settings: 24 hr, Dox inducible, 293FRT/TO cells; read-out: 24 hr Dox Inducible PD1ssGluc 293FRT/TO: Mean IC50
Summary of the method: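 Compound dilutions in DMSO/media containing doxycycline were applied to a stable, inducible 293 T-REx line carrying the luciferase fusion, then incubated at 37 °C, 5% CO2. Where stereochemistry is not drawn, values relate to isomer mixtures.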

[2] = tested on: full length TNFα (amino acids 1-233) fused to Gaussia Luciferase; test: Dox Induced TNFα-FL-Gluc Assay; assay type: cell-based; settings: 24 hr, Dox inducible, 293FRT/TO cells; read-out: 24 hr Dox Inducible TNFaFLGluc 293FRT/TO: Mean IC50
Summary of the method: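 Compounds diluted in DMSO/medium with doxycycline were incubated at 37° C, 5% CO2 with 293 T-REx cells stably carrying a Tet-regulated TNFα(1-233)-Gaussia luciferase construct. Data for structures drawn without stereochemistry refer to stereoisomer mixtures.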

[3] = tested on: full length IL-2 (amino acids 1-153) fused to Gaussia Luciferase; test: Dox Induced IL2-FL-Gluc Assay; assay type: cell-based; settings: 24 hr, Dox inducible, 293FRT/TO cells; read-out: 24 hr Dox Inducible IL2FLGluc 293FRT/TO: Mean IC50
Summary of the method: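 Compounds in DMSO/media with doxycycline were added to cells plated the previous day and incubated at 37° C, 5% CO2. Cells: stable Flp-In 293 T-REx line, Dox-regulated expression of IL-2 (aa 1-153) fused at its C-terminus to Gaussia luciferase.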

[4] = tested on: HER3 signal sequence plus 4 amino acids fused to Gaussia Luciferase (HER3-ss+4aa/Gaussia Luciferase); test: Dox Induced HER3-ss-Gluc Assay; assay type: cell-based; settings: 24 hr, doxycycline induced, Flp-In 293 T-REx cells; read-out: 24 hr Dox Inducible Her3(ss + 4) Gluc 293FRT/TO: Mean 1050
Excerpt: FIp-In 293 T-REx™ cells were transfected with pcDNA™5/FRT/TO plasmid inserted with cDNA encoding Gaussia Luciferase fused to the 3′ end of cDNA encoding HER3 signal sequence plus 4 amino acids (N-[…]-C) (SEQ ID NO: 2). Transfected cells were selected for resistance to the selectable markers Hygromycin and Blasticidin to create a stable cell line that contained the HER3-ss+4aa/Gaussia Luciferase cDNA insert whose expression was regulated under the T-REx™ system. The day before assay, cells were trypsinized and plated in 384-well tissue culture plates. The next day, compound dilutions in DMSO/media containing doxycycline were added to the wells and incubated at 37° C., 5% CO2.
For chemical structures that include one or more stereoisomers, but are illustrated without indicating stereochemistry, the assay data refers to a mixture of stereoisomers.

[5] = tested on: multiple myeloma cell line NCl-H929; test: H929 Cell Viability Assay; assay type: cell-based, human; settings: Homo sapiens, NCI-H929, 48 h, H929, Celltiter-Glo
Summary of the method: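 Viability was determined by CellTiter-Glo luminescence after a 48 h, 37 °C exposure of NCI-H929 cells to serial compound dilutions in medium containing 10% FBS. Where stereochemistry is not shown, values refer to a mix of stereoisomers.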

[6] = tested on: multiple myeloma cell line U266B1; test: U266 Cell Viability Assay; assay type: cell-based, human; settings: Homo sapiens, U-266; 48 hr, U266, Celltiter-Glo
Summary of the method: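 Viability was measured by CellTiter-Glo luminescence after 48 h compound exposure at 37° C, 5% CO2. The cells were U266B1 multiple myeloma cells grown in RPMI 1640 plus 10% FBS. Where stereochemistry is not shown, values apply to the stereoisomer mixture.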

[7] = In Vitro Microsome Stability Assay (human); assay type: in vitro ADME; settings: human liver microsomes, 30 min w/ NADPH
Summary of the method: (§1)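 Test article, added from a 0.25 mM DMSO stock, was incubated with liver microsomes (20 mg/mL stock) in 0.1 M potassium phosphate at 37° C, with the reaction started by NADPH. Samples were quenched with acetonitrile containing internal standard at 0 and 30 min and analysed by LC-MS/MS. Values are % remaining at 30 min versus 0 min, using IS-normalised AUC ratios.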

[8] = In Vitro Microsome Stability Assay (mouse); assay type: in vitro ADME; settings: mouse liver microsomes, 30 min w/ NADPH
Summary of the method: as §1

[9] = In Vitro Microsome Stability Assay (rat); assay type: in vitro ADME; settings: rat liver microsomes, 30 min w/ NADPH
Summary of the method: as §1

[10] = In Vitro Microsome Stability Assay (monkey); assay type: in vitro ADME; settings: monkey liver microsomes, 30 min w/ NADPH
Summary of the method: as §1

| Compound | IC50 [1] | IC50 [2] | IC50 [3] | IC50 [4] | EC50 [5] | EC50 [6] | Liver Microsome Stability-% Left after 30 min w/ NADPH (%) Human [7] | Liver Microsome Stability-% Left after 30 min w/ NADPH (%) Mouse [8] | Liver Microsome Stability-% Left after 30 min w/ NADPH (%) Rat [9] | Liver Microsome Stability-% Left after 30 min w/ NADPH (%) Monkey [10] |
| --- | --- | --- | --- | --- | --- | --- | --- | --- | --- | --- |
| C[C@H]1CN(S(=O)(=O)c2ccc(N(C)C)cc2)CCCN(CC(C)(C)C)CCCN(S(=O)(=O)N2CCc3cc(Cl)ccc3C2)C1 [A107, 4-{[(3S)-5-[(6-chloro-1,2,3,4-tetrahydroisoquinolin-2-yl)sulfonyl]-9-(2,2-dimethylpropyl)-3-methyl-1,5,9-triazacyclododecan-1-yl]sulfonyl}-N,N-dimethylaniline] | 26.1 nM | 609 nM | 73 nM | 44.2 nM | 1180 nM | > 25000 nM | 83.9% | 16.1% | 19.3% | 25.0% |
| C[C@H]1CN(S(=O)(=O)c2ccc(N(C)C)cc2)CCCN(CCC2CCCC2)CCCN(S(=O)(=O)N2CCc3cc(Cl)ccc3C2)C1 [A120, 4-{[(3S)-5-[(6-chloro-1,2,3,4-tetrahydroisoquinolin-2-yl)sulfonyl]-9-(2-cyclopentylethyl)-3-methyl-1,5,9-triazacyclododecan-1-yl]sulfonyl}-N,N-dimethylaniline] | 15.6 nM | 239 nM | 27.3 nM | 31.4 nM | 672 nM | > 25000 nM | 4.78% | 19.2% | 28.5% | 16.3% |
| C[C@H]1CN(S(=O)(=O)c2ccc(N(C)C)cc2)CCCN(CCC2CC2)CCCN(S(=O)(=O)N2CCc3cc(Cl)ccc3C2)C1 [A122, 4-{[(3S)-5-[(6-chloro-1,2,3,4-tetrahydroisoquinolin-2-yl)sulfonyl]-9-(2-cyclopropylethyl)-3-methyl-1,5,9-triazacyclododecan-1-yl]sulfonyl}-N,N-dimethylaniline] | 51.9 nM | 885 nM | 135 nM | 111 nM | 2420 nM | > 25000 nM | 0.38% | 36.4% | 0.17% | 0.15% |
| C[C@H]1CN(S(=O)(=O)c2ccc3oncc3c2)CCCN(CC2CCCCC2)CCCN(S(=O)(=O)N2CCc3cc(Cl)ccc3C2)C1 [A180] | 2740 nM | > 25000 nM | 13800 nM | – | 20200 nM | > 25000 nM | 0.80% | 0.44% | 1.97% | 0.08% |
| C[C@H]1CN(S(=O)(=O)c2ccc(N(C)C)cc2)CCCN(CC2CCCCC2)CCCN(S(=O)(=O)N2CCc3c(Cl)cccc3C2)C1 [A181, 4-{[(3S)-5-[(5-chloro-1,2,3,4-tetrahydroisoquinolin-2-yl)sulfonyl]-9-(cyclohexylmethyl)-3-methyl-1,5,9-triazacyclododecan-1-yl]sulfonyl}-N,N-dimethylaniline] | 38.7 nM | 984 nM | 122 nM | – | 1480 nM | > 25000 nM | 23.3% | 17.1% | 22.0% | 27.9% |
| C[C@H]1CN(S(=O)(=O)c2ccc(N(C)C)cc2)CCCNCCCN(S(=O)(=O)N2CCc3cc(Cl)ccc3C2)C1 [A183, 4-{[(3S)-5-[(6-chloro-1,2,3,4-tetrahydroisoquinolin-2-yl)sulfonyl]-3-methyl-1,5,9-triazacyclododecan-1-yl]sulfonyl}-N,N-dimethylaniline] | 1440 nM | – | 2520 nM | 2150 nM | 6120 nM | > 25000 nM | 10.1% | 7.39% | 3.17% | 0.75% |
| C[C@@H]1CN(CC2CCCCC2)C[C@H](C)CN(S(=O)(=O)c2ccc(N(C)C)cc2)C[C@H](C)CN(S(=O)(=O)N2CCc3cc(Cl)ccc3C2)C1 [B16, 4-{[(3S,7R,11S)-5-[(6-chloro-1,2,3,4-tetrahydroisoquinolin-2-yl]sulfonyl]-9-(cyclohexylmethyl)-3,7,11-trimethyl-1,5,9-triazacyclododecan-1-yl]sulfonyl}-N,N-dimethylaniline] | 449 nM | 13900 nM | 826 nM | – | > 25000 nM | > 25000 nM | 55.2% | 58.4% | 72.3% | 44.7% |
| C[C@H]1CN(S(=O)(=O)c2ccc(N(C)C)cc2)CCCCN(S(=O)(=O)N2CCc3cc(Cl)ccc3C2)C1 [B21] | 3950 nM | > 25000 nM | > 25000 nM | – | > 25000 nM | > 25000 nM | 0.17% | 0.16% | 0.06% | 0.03% |

Now from value to compound:

| IC50 [1] | IC50 [2] | IC50 [3] | IC50 [4] | EC50 [5] | EC50 [6] | Liver Microsome Stability-% Left after 30 min w/ NADPH (%) Human [7] | Liver Microsome Stability-% Left after 30 min w/ NADPH (%) Mouse [8] | Liver Microsome Stability-% Left after 30 min w/ NADPH (%) Rat [9] | Liver Microsome Stability-% Left after 30 min w/ NADPH (%) Monkey [10] | Compound |
| --- | --- | --- | --- | --- | --- | --- | --- | --- | --- | --- |
| 9.35 nM | 393 nM | 40.4 nM | – | 1440 nM | > 25000 nM | 4.26% | 6.73% | 6.28% | 2.27% | COc1c(F)cccc1N1CCN(S(=O)(=O)N2CCCN(CC3CCCCC3)CCCN(S(=O)(=O)c3ccc(N(C)C)cc3)C[C@H](C)C2)CC1 [A175, 4-{[(3S)-9-(cyclohexylmethyl)-5-{[4-(3-fluoro-2-methoxyphenyl)piperazin-1-yl]sulfonyl}-3-methyl-1,5,9-triazacyclododecan-1-yl]sulfonyl}-N,N-dimethylaniline] |
| 135 nM | 4820 nM | 255 nM | – | > 25000 nM | > 25000 nM | 24.0% | 22.8% | 29.2% | 25.8% | COc1cc(F)ccc1C1CN(S(=O)(=O)N2CCCN(CC3CCCCC3)CCCN(S(=O)(=O)c3ccc(N(C)C)cc3)C[C@H](C)C2)C1 [A178, 4-{[(3S)-9-(cyclohexylmethyl)-5-{[3-(4-fluoro-2-methoxyphenyl)azetidin-1-yl]sulfonyl}-3-methyl-1,5,9-triazacyclododecan-1-yl]sulfonyl}-N,N-dimethylaniline] |
| 31 nM | 1470 nM | 105 nM | 78.2 nM | > 25000 nM | > 25000 nM | – | – | – | – | COc1cc(F)cc(N2CCN(S(=O)(=O)N3CCCN(CC4CCCCC4)CCCN(S(=O)(=O)c4ccc(N(C)C)cc4)C[C@H](C)C3)C[C@H]2C)c1 [A196] |
